Results reported in ChEMBL document CHEMBL1201862, “PubChem BioAssay data set” (2004).
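The compound was tested at five concentrations on cells cultured in 96-well plates, with a 48-hour exposure period. Abbreviation: GI50, concentration required for 50% inhibition of growth.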 The source made the active and inactive calls. Rule as the data show it: active = GI50 up to about 1.1 µM and inactive = higher.

How the values were obtained:
Experiment in all cases: NCI anticancer screen, dose series, 48 h
SN12C = test system: SN12C
U-251 = test system: U-251
COLO 205 = test system: COLO 205
SNB-19 = test system: SNB-19
HCT-15 = test system: HCT-15
EKVX = test system: EKVX
OVCAR-8 = test system: OVCAR-8
KM12 = test system: KM12
RXF 393 = test system: RXF 393
OVCAR-5 = test system: OVCAR-5
TK-10 = test system: TK-10
CCRF-CEM = test system: CCRF-CEM
NCI-H226 = test system: NCI-H226
NCI-H23 = test system: NCI-H23
DU-145 = test system: DU-145
MDA-MB-231 = test system: MDA-MB-231
PC-3 = test system: PC-3
MCF7 = test system: MCF7
NCI/ADR-RES = test system: NCI/ADR-RES

Measured: GI50

CCCC(=O)c1ccc(=O)n(C)c1
inactive: SN12C > 100 µM | U-251 > 100 µM | COLO 205 > 100 µM | SNB-19 > 100 µM | EKVX > 100 µM | OVCAR-8 > 100 µM | KM12 > 100 µM | RXF 393 > 100 µM | OVCAR-5 > 100 µM | TK-10 > 100 µM | CCRF-CEM > 100 µM | NCI-H226 > 100 µM | NCI-H23 > 100 µM
> 100 µM: HCT-15

O=C(O)c1ccc(Nc2nc3cc(C(F)(F)F)ccc3n3cccc23)cc1
23.3 µM: HCT-15
inactive: DU-145 49.2 µM | MDA-MB-231 19.7 µM | PC-3 25.5 µM | U-251 21.3 µM | COLO 205 22.5 µM | SNB-19 54 µM | EKVX 62.4 µM | OVCAR-8 49.5 µM | KM12 19.8 µM | RXF 393 17.1 µM | OVCAR-5 40.8 µM | TK-10 28.2 µM | CCRF-CEM 16.5 µM | NCI-H23 35.8 µM | MCF7 35.6 µM | NCI/ADR-RES 61.9 µM

S=C=NC1CCC(c2cc3ccccc3s2)(N2CCCCC2)CC1 (configuration not stated)
1.53 µM: HCT-15
inactive: DU-145 2.08 µM | SN12C 1.82 µM | COLO 205 1.98 µM | SNB-19 2.79 µM | EKVX 2.16 µM | OVCAR-8 1.95 µM | KM12 1.87 µM | RXF 393 1.72 µM | OVCAR-5 1.75 µM | TK-10 2 µM | NCI-H23 1.92 µM | MCF7 2.09 µM | NCI/ADR-RES 1.84 µM
active: CCRF-CEM 0.577 µM

O=C(CC(=O)C(=O)CC(=O)OCc1ccccc1)OCc1ccccc1
> 100 µM: HCT-15
inactive: SN12C 57.1 µM | U-251 50.9 µM | COLO 205 > 100 µM | SNB-19 43.4 µM | EKVX > 100 µM | OVCAR-8 > 100 µM | RXF 393 75 µM | OVCAR-5 > 100 µM | TK-10 > 100 µM | CCRF-CEM 49.2 µM | NCI-H23 53.2 µM

COc1ccc(CSc2ccccc2Cn2cccc2)cc1OC
inactive: DU-145 > 100 µM | SN12C 34.8 µM | U-251 > 100 µM | COLO 205 > 100 µM | SNB-19 > 100 µM | EKVX 82.8 µM | OVCAR-8 > 100 µM | KM12 28.3 µM | OVCAR-5 > 100 µM | TK-10 > 100 µM | CCRF-CEM 50.5 µM | NCI-H226 > 100 µM | NCI-H23 10.9 µM | MCF7 36.2 µM | NCI/ADR-RES 34.3 µM
87.9 µM: HCT-15

CCC(C=O)P1(=O)OC(C)(C)CN1C(C)(C)C (configuration not stated)
inactive: DU-145 > 100 µM | MDA-MB-231 > 100 µM | PC-3 84.3 µM | U-251 > 100 µM | COLO 205 > 100 µM | SNB-19 > 100 µM | EKVX 91.4 µM | OVCAR-8 > 100 µM | KM12 24.4 µM | OVCAR-5 > 100 µM | TK-10 93.3 µM | NCI-H226 > 100 µM | NCI-H23 > 100 µM | MCF7 84.3 µM | NCI/ADR-RES 92.3 µM
99.8 µM: HCT-15

COc1cccc(C2c3cc4c(cc3OC(NNC(N)=O)C2C)OCO4)c1OC (configuration not stated)
9.23 µM: HCT-15
inactive: DU-145 20.9 µM | MDA-MB-231 31.7 µM | PC-3 19.4 µM | SN12C 27 µM | U-251 20 µM | COLO 205 14.7 µM | SNB-19 29.1 µM | EKVX 26.7 µM | OVCAR-8 4.32 µM | KM12 23.2 µM | RXF 393 14.1 µM | OVCAR-5 34.1 µM | TK-10 28.9 µM | CCRF-CEM 24.7 µM | NCI-H226 25.3 µM | NCI-H23 30.8 µM | MCF7 31 µM

COc1cc(/C=C2\N=C(C)N(n3c(-c4ccccc4)nc4ccccc4c3=O)C2=O)cc(OC)c1OC
inactive: DU-145 > 100 µM | MDA-MB-231 > 100 µM | PC-3 > 100 µM | SN12C > 100 µM | COLO 205 > 100 µM | SNB-19 > 100 µM | EKVX > 100 µM | OVCAR-8 > 100 µM | KM12 > 100 µM | TK-10 > 100 µM | CCRF-CEM > 100 µM | NCI-H226 > 100 µM | NCI-H23 94.6 µM | MCF7 > 100 µM
> 100 µM: HCT-15

COc1ccc2c3c(c(C(=O)O)oc13)CCC2
inactive: SN12C > 100 µM | U-251 > 100 µM | COLO 205 > 100 µM | SNB-19 > 100 µM | EKVX > 100 µM | OVCAR-8 > 100 µM | KM12 > 100 µM | RXF 393 > 100 µM | OVCAR-5 > 100 µM | TK-10 > 100 µM | CCRF-CEM > 100 µM | NCI-H226 18.2 µM | NCI-H23 > 100 µM
> 100 µM: HCT-15
